# Results as given in US11225479B2, “Bicyclic inhibitors of histone deacetylase” (Alkermes, Inc., priority 2017, dated 2022).
# Several values for one entry are separate records, joined by “and”; a condition that tells them apart may be missing. Identical values can stand only once.
# Experiments:
# [1] = test system: human erythroid progenitors (CFU-E, BFU-E); test: Erythroid CFU assay; type: cell-based; details: for activity at 10 µM: Bone marrow cell, 336 h, 14 days culture, human bone marrow cells, read-out: Erythroid % control @ 10 uM dose
# Description: (§1) Compounds were tested to evaluate the potential effects on human erythroid and myeloid progenitors using colony forming cell assays. Clonogenic progenitors of human erythroid (CFU-E, BFU-E), granulocyte-monocyte (CFU-GM) and multipotential (CFU-GEMM) lineages were assessed in a semi-solid methylcellulose-based media formulation containing rhIL-3 (10 ng/mL), rhGM-SCF (10 ng/mL), rhSCF (50 ng/mL) and Epo (3 U/mL).
# (§2) Normal human bone marrow light density cells derived from normal bone marrow (NorCal Biologics, California), were stored in the gaseous phase of liquid nitrogen (−152° C.) until required for the assay. On the day of the experiment, the cells were thawed rapidly, the contents of each vial was diluted in 10 mL of Iscove's modified Dulbecco's medium containing 10% fetal bovine serum (IMDM+10% FBS) and washed by centrifugation (approximately 1200 r.p.m. for 10 minutes, room temperature). The supernatant was discarded and the cell pellets resuspended in a known volume of IMDM+10% FBS. A cell count (3% glacial acetic acid) and viability assessment (trypan blue exclusion test) was performed for the bone marrow sample.
# (§3) On the day of the experiment, the compounds were dissolved in DMSO to a stock concentration of 10 mM. Serial dilutions were prepared from the stock concentration to achieve concentrations of 2 and 0.4 mM. When added to the methylcellulose-based media at 1:1000 (v/v), the final test concentrations of 10, 2 and 0.4 μM were achieved. Additionally, 5-FU was evaluated at 1.0, 0.1 and 0.01 μg/mL.
# (§4) Clonogenic progenitors of the human erythroid (CFU-E and BFU-E) and myeloid (CFU-GM) lineages were set up in the methylcellulose-based media formulations described above. All compounds were added to the medium to give the final desired concentrations (10, 2 and 0.4 μM). 5-Fluorouracil (Sigma Aldrich) was used as a positive control for progenitor proliferation (inhibition of colony growth) and was introduced to the human bone marrow cultures at 1.0, 0.1, and 0.01 μg/mL. Solvent control cultures (containing no compound but 0.1% DMSO) as well as standard controls (containing no compound and no DMSO) were also initiated.
# (§5) Human myeloid and erythroid progenitor assays were initiated at 2.0×10^4 cells per culture. Following 14 days in culture, myeloid and erythroid colonies were assessed microscopically and scored by trained personnel. The colonies were divided into the following categories based on size and morphology: CFU-E, BFU-E, CFU-GM and CFU-GEMM.
# (§6) The mean±one standard deviation of three replicate cultures was calculated for progenitors of each category (CFU-E, BFU-E, etc.). Two-tailed t-tests were performed to assess if there was a difference in the number of colonies generated between solvent control and treated cultures. Due to the potential subjectivity of colony enumeration, a p value of less than 0.01 is deemed significant. To calculate the concentration of 50% inhibition of colony growth (IC50) for each compound, a dose response curve was generated plotting the log of the compound concentration versus the percentage of control colony growth using XLfit software (IDBS). The concentration of 50% inhibition of colony growth (IC50) was calculated based on the sigmoid curve fit using Dose-Response, One-Site Model formula: y=A+[(B−A)/(1+((C/x)^D))], where A=the initial value (baseline response), B=maximum response, C=center (drug concentration that provokes a response halfway between A and B) and D=slope of the curve at midpoint. Further, plots and additional dose response curves were generated using GraphPad Prism 7.0.
# (§7) Erythroid (CFU-E and BFU-E), myeloid (CFU-GM) and multi-potential (CFU-GEMM) colony enumeration was performed by trained personnel. The distribution of colony types as well as general colony and cellular morphology was analyzed. For statistical analysis colony numbers in compound treated cultures were compared to the solvent control cultures. […]
# [2] = Brain and plasma exposure following IV and PO administration to mice; type: in vivo; details: for Brain Cmax @ 10 mpk / Projected free brain @ 10 mpk: 10 mg/kg PO; for brain Cmax exposure, fold higher than comparator 1 / projected free brain concentration, fold higher than comparator 1: comparator 1 data scaled for comparison
# Description: Compounds were dosed in mice at either 10 mg/kg or 30 mg/kg PO, and were dosed at 1 mg/kg IV. Three animals for collection at each time point for plasma via bleeding at 0.25, 0.5, 1, 4, 12 and 24 h. Terminal bleeding for plasma and sampling for brain at 0.25, 0.5, 1, 4, 12 and 24 h (also three animals per brain exposure time point group). Total of six time points for plasma and six time points for brain.
# Plasma: The animal was restrained manually at the designated time points, approximately 150 μL blood/time point was collected into K2EDTA tube via retro orbital puncture or cardiac puncture under anesthesia with Isoflurane. The blood sample was centrifuged (2000 g, 4° C., 5 min) to generate plasma within 30 min after bleeding.
# Brain: At the designated time points, a mid-line incision was made in the animals scalp and the skin was retracted. Using small bone cutters and rongeurs, removed the skull overlying the brain. Removed the brain using a spatula and rinse with cold saline. Placed the brain in screw-top tubes, and then stored the tubes under −70° C. until analysis.
# [3] = test system: human myeloid progenitors (CFU-GM); test: Myeloid CFU assay; type: cell-based; details: 336 h, 14 days culture, human bone marrow cells, read-out: Myeloid % control @ 10 uM dose
# Description: as §1, §2, §3, §4, §5, §6, §7
SMILES,activity at 10 µM [1] [%],Brain Cmax @ 10 mpk [2],activity at 10 µM [3] [%],further results
CCc1cc2c(cn1)CN(C(=O)Nc1nc(-c3cccnc3)ccc1N)C2 [Compound 8],98,279 ng/g,102,
"Cn1cc2c(n1)CN(C(=O)Nc1nc(-c3ccc(F)cc3)ccc1N)C2 [Comparator 2, reference compound]",15.7,,30.4,
"Nc1ccc(-c2cccs2)nc1NC(=O)N1Cc2cncnc2C1 [Comparator 6, reference compound]",,100 ng/g,,Projected free brain @ 10 mpk [2]: 0.103 µM
Cc1ncc(-c2ccc(N)c(NC(=O)N3Cc4cn(C)nc4C3)n2)s1 [Compound 4],53,324 ng/g,96,
Cn1cc2c(n1)CN(C(=O)Nc1nc(-c3cccnc3)ccc1N)C2 [Compound 11],94,369 ng/g,103,Projected free brain @ 10 mpk [2]: 0.664 µM
"COCc1cc2c(cn1)CN(C(=O)Nc1nc(-c3ccc(F)cc3)ccc1N)C2 [Comparator 5, reference compound]",22.9,,58.9,
Cc1ncc2c(n1)CN(C(=O)Nc1nc(-c3ccc(F)cc3)ccc1N)C2 [Compound 14],53,633 ng/g,112,"brain Cmax exposure, fold higher than comparator 1 [2]: 4 fold; projected free brain concentration, fold higher than comparator 1 [2]: 4 fold"
Nc1ccc(-c2ccc(F)cc2)nc1NC(=O)N1Cc2cn(C3COC3)nc2C1 [Compound 1],37,636 ng/g,54,
"Nc1ccc(-c2ccc(F)cc2)nc1NC(=O)N1Cc2cncnc2C1 [Comparator 1, reference compound]",47.1,,83.9,"Brain Cmax @ 10 mpk (*scaled for comparison) ([2]; dosed 30 mg/kg PO, scaled to 10 mg/kg PO): 158* ng/g"
COCCn1cc2c(n1)CN(C(=O)Nc1nc(-c3ccc(F)cc3F)ccc1N)C2 [Compound 9],40.4,1533 ng/g and 1383 ng/g,62.8,
Cc1ncc2c(n1)CN(C(=O)Nc1nc(-c3ccc(F)s3)ccc1N)C2 [Compound 2],40,760 ng/g,87,
"COCCn1cc2c(n1)CN(C(=O)Nc1nc(-c3ccc(F)cc3)ccc1N)C2 [Comparator 6, reference compound]",28,,39,
Cc1nc2c(n1C)CN(C(=O)Nc1nc(-c3ccc(F)cc3)ccc1N)C2 [Compound 7],,102 ng/g,,
"O=c1[nH]cc(F)c(=O)[nH]1 [Compound 5-FU, 5-Fluorouracil, reference compound]",,,,"inhibitory effects on colony growth (positive control for toxicity) ([1]; 1.0, 0.1 and 0.01 μg/mL, erythroid and myeloid assays): exactly as expected"
Cc1ncc(-c2ccc(N)c(NC(=O)N3Cc4cn(CC(F)F)nc4C3)n2)s1 [Compound 5],,277 ng/g,,
Cc1cc2c(cn1)CN(C(=O)Nc1nc(-c3cccnc3)ccc1N)C2 [Compound 12],93,237 ng/g,104,
CCc1ncc2c(n1)CN(C(=O)Nc1nc(-c3cccs3)ccc1N)C2 [Compound 3],46.6,526 ng/g,89.4,
CCc1ncc2c(n1)CN(C(=O)Nc1nc(-c3ccc(F)cc3)ccc1N)C2 [Compound 17],59.6,1241 ng/g,79.1,"brain Cmax exposure, fold higher than comparator 1 [2]: ~7 fold; projected free brain concentration, fold higher than comparator 1 [2]: 5 fold"
"Cc1cc2c(cn1)CN(C(=O)Nc1nc(-c3ccc(F)cc3)ccc1N)C2 [Comparator 3, reference compound]",25.7,,66.1,
